The subject of series [1] is A10 embryonic vascular smooth muscle cells. Kind of series: xCELLigence cellular impedance (cell index), A10 vascular smooth muscle cells. As to conditions: 62.5, 125 and 250 μM, FIG. 3. It counts as cell-based. Here is the method: The xCELLigence SP system (Roche) was used to measure changes in cellular impedance (cell index) following the treatment of A10 embryonic vascular smooth muscle cells (ATCC, CRL-1476) with VB0004. This in vitro assay was correlated with blood pressure data obtained in the animal model described below in Example 3, so that it can be used for faster screening of larger number of compounds. […]
Briefly, 50 μl of cell culture medium (DMEM low glucose supplemented with 10% fetal bovine serum at 37° C.) was added to each well of an E-Plate 96 (Roche), and the background impedance in each well was measured. […] Cell index was monitored for each well of the E-Plate 96 in RTCA SP Station within the cell culture incubator. After overnight incubation for 16-20 hours at 5% CO2 and 95% humidity, 100 μl of VB0004 solution (VB0004 was prepared in DMSO and diluted with cell culture medium to a final DMSO concentration of 0.25%) was added to the appropriate wells of the E-Plate 96 and cell index values were measured immediately following compound treatment every 20 seconds for 3 hours. […]

Series [2] relates to bovine aortic endothelial cells. Kind of series: xCELLigence cellular impedance (cell index), bovine aortic endothelial cells. It counts as cell-based. Particulars: 62.5, 125 and 250 μM, FIG. 5. Here is the method: Briefly, 50 μl of cell culture medium (DMEM low glucose supplemented with 10% fetal bovine serum at 37° C.) was added to each well of an E-Plate 96 (Roche), and the background impedance in each well was measured. 50 μl of A-10 cell suspension (10,000 cells/well) was then added to the appropriate wells of the E-Plate 96. Cell index was monitored for each well of the E-Plate 96 in RTCA SP Station within the cell culture incubator. After overnight incubation for 16-20 hours at 5% CO2 and 95% humidity, 100 μl of VB0004 solution (VB0004 was prepared in DMSO and diluted with cell culture medium to a final DMSO concentration of 0.25%) was added to the appropriate wells of the E-Plate 96 and cell index values were measured immediately following compound treatment every 20 seconds for 3 hours. Cell index value is baseline-corrected by subtracting the cell index of vehicle-treated cells and normalized by dividing by the cell index at the time point immediately before compound addition. Baseline normalized cell index as a function of time is plotted using Roche RTCA software.
The xCELLigence SP system (Roche) was also used to measure changes in cellular impedance (cell index) following the treatment of bovine aortic endothelial cells (European Collection of Cell Cultures) with test compound. […]

For series [3], the system named is SHR on 2.2% salt diet. Nature of the series: Oral study: systolic blood pressure by tail cuff plethysmography in SHR on 2.2% salt diet. It counts as in vivo, rat. The source says:
(§1) Fourteen week old SHR (on a 2.2% salt diet; Glen Forrest Stockfeeders) were randomly assigned to zero time control, VB0004 treatment (10, 100, 500, 1,000 and 2,500 pmol/kg/min) in the drinking solution or control drinking solution (5% ethanol in deionised distilled water (n=5 each group). The rats assigned to zero time control group were anaesthetised and had their heart and kidneys harvested while rats assigned to control and VB0004 treatment were weighed twice weekly and had their drinking solution intake monitored to allow adjustment of the VB0004 concentration in the drinking solution to maintain a constant dose over the 4, 6 or 8 weeks study periods. Blood pressure was measured twice weekly by tail cuff plethysmography (PowerLab, ADInstruments, Castle Hill, NSW, Australia). After 4, 6 or 8 weeks rats were anaesthetised, and their heart and kidneys harvested for quantitation of fibrosis.

The test system of series [4] is SHR on 2.2% salt diet. Kind of series: Intravenous infusion study: systolic blood pressure by tail cuff plethysmography in SHR on 2.2% salt diet. It counts as in vivo, rat. As to conditions: intravenous 10 and 20 pmol/kg/min, 4 weeks, FIG. 6. Here is the method: Fourteen week old SHR (on a 2.2% salt diet; Glen Forrest Stockfeeders) were randomly assigned to zero time control, VB0004 infusion (10 and 20 pmol/kg/min) or vehicle (20% DMSO in normal saline, Baxter Healthcare, Sydney NSW Australia) infusion (n=5 each group). […] Blood pressure was measured twice weekly by tail cuff plethysmography (PowerLab, ADInstruments, Castle Hill, NSW, Australia). After 4 weeks rats were again anaesthetised, their heart and kidneys harvested for quantitation of fibrosis.

Series [5] relates to SHR on 2.2% salt diet. Kind of series: Oral study: fibrosis quantitation in heart (Masson's trichrome) of SHR on 2.2% salt diet. It counts as in vivo, rat.
From the text: as §1, with “fibrosis. To quantitate fibrosis, tissue slices ≦3 mm thick were fixed in 10% buffered formalin for 24 hours, processed and embedded in paraffin. […] A minimum of 20 random fields at magnification ×20 from transverse sections (5 at each of 2 levels) were digitized and the degree of fibrosis determined as a percent of field area of each digitized image using Image-Pro Plus V.5 (Media Cybernetics, Bethesda, Md., USA) then averaged to determine the level of fibrosis for tissue for each rat.” for “fibrosis.”

Series [6] deals with SHR on 2.2% salt diet. Nature of the series: Oral study: fibrosis quantitation in kidney (Masson's trichrome) of SHR on 2.2% salt diet. It counts as in vivo, rat.
From the text: as §1, with “fibrosis. To quantitate fibrosis, tissue slices ≦3 mm thick were fixed in 10% buffered formalin for 24 hours, processed and embedded in paraffin. […] A minimum of 20 random fields at magnification ×20 from transverse sections (5 at each of 2 levels) were digitized and the degree of fibrosis determined as a percent of field area of each digitized image using Image-Pro Plus V.5 (Media Cybernetics, Bethesda, Md., USA) then averaged to determine the level of fibrosis for tissue for each rat.” for “fibrosis.”

As usually defined, the melting point is the temperature of the solid-liquid transition. As to `NC(=O)CCc1cc(-c2ccccc2)ccc1-c1cccc(O)c1` [VB0004, 2′-[3-Hydroxy-(1,1′:4′,1″-terphenyl)]propanamide], the melting point is 167.2 to 168.9 °C. The “impedance response (cell index)” value in series [1] was “negative impedance response”. The “impedance response (cell index)” value in series [2] is given as “negative impedance response”. Besides, the “mean systolic blood pressure over time” value in series [3] (2,500 pmol/kg/min orally, up to 8 weeks, FIG. 8) is “continued to decrease with time”. In addition, in series [3] (10, 100 and 500 pmol/kg/min orally, 4 weeks, FIG. 4), the “mean systolic blood pressure compared to controls” value was “decreased blood pressure compared to controls”. In series [3] (10 to 2,500 pmol/kg/min orally, 4 weeks, FIG. 7), the “mean systolic blood pressure compared with controls, dose dependence” value was “decreased blood pressure with increased dose compared with controls”. For the same compound, in series [4], the “decrease in SBP compared with vehicle control” value is listed as 20 mmHg. For the same compound, in series [5] (18 week old SHR, 10 to 500 pmol/kg/min orally, 4 weeks, vs 14 and 18 week controls, FIG. 9), the “fibrosis in the heart” value is “decreased compared with fibrosis in 14 and 18 week controls”. The “fibrous tissue in heart sections (micrographs, Masson's trichrome)” value in series [5] (SHR, 500 pmol/kg/min for four weeks, FIG. 11) is listed as “virtually no fibrous tissue is present”. The “fibrosis in the kidney” value in series [6] (18 week old SHR, 10 to 500 pmol/kg/min orally, 4 weeks, vs 14 and 18 week controls, FIG. 10) is “decreased compared with fibrosis in 14 and 18 week controls”. For the same compound, the “fibrous tissue in kidney sections (micrographs, Masson's trichrome)” value in series [6] (SHR, 500 pmol/kg/min for four weeks, FIG. 12) is reported as “virtually no fibrous tissue is present”.

The values above are taken from patent US9458093B2, “Compositions for the treatment of hypertension and/or fibrosis” (Vectus Biosystems Limited, priority 2013, dated 2016).
